Reference: patent publication US11230526B1, “Cylcoalkenyl derivatives useful as agonists of the GPR120 and/or GPR40 receptors” (Janssen Pharmaceutica NV, priority 2018, dated 2022)

Tests used:
Assay type in all cases: cell-based
[1] = biological target: T1, long form of human GPR120 (Homo sapiens, UniProt Q5NUL3); assay: Human GPR120 DiscoveRx PathHunter Beta-Arrestin assay, Procedure β-arrestin A
T1 construct: host or cells: PathHunter CHO-K1 GPR120 β-Arrestin Cell Line
Excerpt: Human GPR120 DiscoveRx PathHunter® Beta-Arrestin Assay Assay Principle:
The binding of an agonist (medium/long chain fatty acids or small molecule agonists) to the G-protein-coupled receptor GPR120 activates phospholipase C, leading to release of intracellular Ca^+2 through the generation of inositol 1,4,5-trisphosphate (InsP3 or IP3). GPR120 activation can also trigger intracellular signaling via recruitment of Beta-Arrestin. In the present method, agonist-induced activation of the human GPR120 receptor is monitored through the use of PathHunter® CHO-K1 GPR120 Beta-Arrestin Cell Line engineered by DiscoveRx, as detailed below. The cell lines are designed to co-express both the ProLink/Enzyme Donor (PK)-tagged GPCR and the Enzyme […] (EA)-tagged Beta-Arrestin fusion proteins. Upon GPR120 receptor stimulation/activation, the EA-tagged Beta-Arrestin portion is translocated to the tagged receptor, where the two enzyme fragments are brought within close proximity. Under these conditions, these fragments can interact and form an active Beta-gal enzyme complex through Enzyme Fragment Complementation (EFC). This active Beta-gal complex can enzymatically hydrolyse the substrate to produce a detectable light signal; therefore, activation as a function of agonist concentration can be expressed as an EC50 value to determine relative compound activities. This in vitro assay therefore serves to assess compound agonist activity of the GPR120.
In Procedure β-arrestin A, the cell used were PathHunter® CHO-K1 GPR120 β-Arrestin Cell Line, expressing the long form of human GPR120 (Genbank accession number NM_181745), with 3000 cells per well.
The selected CHO-K1 GPR120 β-Arrestin cells were cultured in Ham's F12 media supplemented with 10% fetal bovine serum (FBS), 1% Glutamine, 1×p/s, 800 μg/mL G418 and 300 μg/mL Hygromycin B (for selection). Cell stocks were maintained and grown in a sub-confluent state using standard cell culture procedures. The day before the experiment, the cells were harvested with non-enzymatic cell dissociation buffer and re-suspended in complete growth media at the desired concentration. A Corning 384-plate was then seeded with the proper number of cells in a volume of 25 μL, per well. The seeded plates were incubated overnight at 37° C.
On the day of the experiment, the Assay Buffer containing (a) HBSS with Ca^++ and Mg^++, (b) 20 mM HEPES, and (c) 0.1% BSA stabilizer (pH 7.4) was prepared. The growth medium was gently removed from the cell plates and 20 μL of Assay Buffer added to each well. The plate was then incubated at 37° C. for 60 min. Test compounds were serially diluted in Assay Buffer to desired concentrations (more particularly to one or more of the following μM concentrations: 25, 12.5, 6.25, 3.12, 1.56, 0.78, 0.39, 0.19, 0.10, 0.05, 0.02, 0.01). Five μL of compound dilution was then added to each well and the plate incubated at 37° C. for 90 min. The detection reagents were prepared according to the manufacture's instruction. Twelve μL of the detection reagents were added to each well and the plate incubated at room temperature for 60 min.
The plates were read on an EnVision instrument, using Protocol name: Luminescence, Plate type: 384 Costar, Measurement height: 3 mm, Measurement time: 1 s, Aperture: 384 Plate aperture. The % Activity relative to the positive control was calculated using the following equation:
The % Activity values were plotted versus the concentration of test compound and fitted to a sigmoidal dose-response curve with a Hill slope=1 (fixed value) using nonlinear regression with GraphPad Prism 5.0 to calculate the EC50 values. The Fitting Equation was: Y=Bottom+(Top-Bottom)/(1+10^((Log EC50−X)*HillSlope)), where X is the log of the concentration and Y is the response.

Human GPR120 short form = biological target: T2, Human GPR120 short form (Homo sapiens, UniProt Q5NUL3); assay: Human GPR120 calcium flux assay, Procedure Calcium B (4200 cells/well)
T2 construct: expressed in transfected cells
T2 sequence (Q5NUL3 1-361): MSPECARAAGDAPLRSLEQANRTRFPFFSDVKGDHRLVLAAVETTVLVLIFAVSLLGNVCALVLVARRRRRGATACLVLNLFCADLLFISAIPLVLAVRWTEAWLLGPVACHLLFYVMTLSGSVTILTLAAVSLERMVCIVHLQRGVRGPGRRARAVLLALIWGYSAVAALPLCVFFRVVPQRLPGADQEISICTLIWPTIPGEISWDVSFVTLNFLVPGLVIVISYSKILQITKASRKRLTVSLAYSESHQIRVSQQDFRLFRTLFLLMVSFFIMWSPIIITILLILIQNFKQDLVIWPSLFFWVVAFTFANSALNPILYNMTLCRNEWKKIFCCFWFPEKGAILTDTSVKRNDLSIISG
Summary of the method: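 Agonist EC50 came from a four-parameter fit of RFU (Fmax−Fmin) read over 300 s on FLIPR. Cells were HEK293 stably transfected with human GPR120 (NM_001195755.1) at 4200 per well, serum-starved 1 h and loaded with Fluo-4 NW dye with probenecid before ligand addition.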

human GPR40 = biological target: T3, human GPR40 (Homo sapiens, UniProt O14842); assay: GPR40 calcium flux assay, human GPR40; conditions: HEK293 cells stably expressing GPR40; table does not say human or rat
T3 construct: expressed in transfected cells
Summary of the method: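 Cells preincubated 1 h at 37° C. in HBSS, 20 mM HEPES, 0.1% BSA, then Fluo 8 calcium dye 30 min at 37° C. and 15 min at room temperature.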

T1 sequence (Q5NUL3 1-377 isoform Q5NUL3-1): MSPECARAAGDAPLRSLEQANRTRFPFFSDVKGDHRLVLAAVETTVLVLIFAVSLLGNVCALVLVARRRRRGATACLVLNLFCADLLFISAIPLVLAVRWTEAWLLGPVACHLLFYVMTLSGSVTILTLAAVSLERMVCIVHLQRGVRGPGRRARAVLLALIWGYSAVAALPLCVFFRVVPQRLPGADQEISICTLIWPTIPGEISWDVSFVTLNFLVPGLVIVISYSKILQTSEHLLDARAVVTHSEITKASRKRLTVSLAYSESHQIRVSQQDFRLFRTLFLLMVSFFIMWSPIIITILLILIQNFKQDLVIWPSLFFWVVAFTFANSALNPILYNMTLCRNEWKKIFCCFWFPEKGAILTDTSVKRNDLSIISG
T1 sequence (P32121 whole entry partner): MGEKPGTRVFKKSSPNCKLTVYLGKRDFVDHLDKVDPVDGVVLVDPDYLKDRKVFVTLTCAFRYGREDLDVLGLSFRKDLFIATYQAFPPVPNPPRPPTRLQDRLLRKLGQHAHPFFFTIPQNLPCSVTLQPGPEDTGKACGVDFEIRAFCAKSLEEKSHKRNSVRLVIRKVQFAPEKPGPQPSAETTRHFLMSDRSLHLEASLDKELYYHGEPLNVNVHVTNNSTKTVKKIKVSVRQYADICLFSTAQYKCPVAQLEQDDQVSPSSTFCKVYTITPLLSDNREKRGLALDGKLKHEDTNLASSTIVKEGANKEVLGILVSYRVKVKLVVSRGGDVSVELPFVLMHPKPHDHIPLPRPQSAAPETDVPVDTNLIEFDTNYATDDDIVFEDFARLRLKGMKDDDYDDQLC
T3 sequence (O14842 whole entry): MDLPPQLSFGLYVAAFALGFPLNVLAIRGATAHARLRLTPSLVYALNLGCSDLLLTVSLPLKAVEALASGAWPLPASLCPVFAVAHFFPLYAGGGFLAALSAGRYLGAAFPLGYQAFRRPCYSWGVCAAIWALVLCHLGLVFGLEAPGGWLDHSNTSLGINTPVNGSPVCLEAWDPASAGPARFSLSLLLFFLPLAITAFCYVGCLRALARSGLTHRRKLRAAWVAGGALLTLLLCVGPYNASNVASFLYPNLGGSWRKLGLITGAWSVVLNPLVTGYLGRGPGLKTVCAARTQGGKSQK

| SMILES | EC50 [1] | EC50 (Human GPR120 short form) | EC50 (human GPR40) |
| --- | --- | --- | --- |
| CCOc1ccc(C2=C(COc3ccc(CCC(=O)O)cc3C)CCC2)cn1 [Compound 225, 3-[4-[[2-(6-ethoxy-3-pyridyl)cyclopenten-1-yl]methoxy]-3-methyl-phenyl]Propanoic Acid] | 0.588 µM | 0.53 µM | > 5 µM |
| Cc1cc(CC(C)C(=O)O)ccc1OCC1=C(c2ccc(F)cc2)CCC1 (stereo not drawn) [Compound 160, 3-[4-[[2-(4-fluorophenyl)cyclopenten-1-yl]methoxy]-3-methyl-phenyl]-2-methyl-Propanoic Acid] | 0.528 µM | 0.215 µM | > 5 µM |
| CCOc1ccc(C2=C(COc3c(F)cc(CCC(=O)O)cc3F)CCC2)cn1 [Compound 226, 3-[4-[[2-(6-ethoxy-3-pyridyl)cyclopenten-1-yl]methoxy]-3,5-difluoro-phenyl]Propanoic Acid] | 1.29 µM | 0.724 µM | > 5 µM |
| Cc1cc(CCC(=O)O)ccc1OCC1=C(c2ccc(F)cc2)CCC(F)(F)C1 [Compound 498, 3-[4-[[5,5-difluoro-2-(4-fluorophenyl)cyclohexen-1-yl]methoxy]-3-methyl-phenyl]Propanoic Acid] | 0.219 µM | 0.096 µM | > 5 µM |
| Cc1cc(CCC(=O)O)ccc1OCC1=C(c2ccc(Cl)cc2)CC(F)(F)CC1 [Compound 566, 3-[4-[[2-(4-chlorophenyl)-4,4-difluoro-cyclohexen-1-yl]methoxy]-3-methyl-phenyl]Propanoic Acid] | 0.209 µM | 0.165 µM | 3.34 µM |
| O=C(O)CCc1cc(F)c(OCC2=C(c3ccc(F)cc3)CC(F)(F)C2)c(F)c1 [Compound 183, 3-[4-[[4,4-difluoro-2-(4-fluorophenyl)cyclopenten-1-yl]methoxy]-3,5-difluoro-phenyl]Propanoic Acid] | 0.185 µM | 0.051 µM | > 5 µM |
| Cc1c(CCC(=O)O)cc(Br)c(OCC2=C(c3ccc(Cl)cc3)CCC2)c1Br [Compound 68] | 1.94 µM | 0.517 µM | > 5 µM |
| Cc1c(CCC(=O)O)ccc(OCC2=C(c3ccc(Cl)cc3)CCC(C(C)C)C2)c1C (stereo not drawn) [Compound 501, 3-[4-[[2-(4-chlorophenyl)-5-isopropyl-cyclohexen-1-yl]methoxy]-2,3-dimethyl-phenyl]Propanoic Acid] | 0.155 µM | 0.364 µM | > 5 µM |
| O=C(O)CCc1ccc(OCC2=C(c3ccc(F)cc3)CC(F)(F)C2)cc1C(F)(F)F [Compound 188, 3-[4-[[4,4-difluoro-2-(4-fluorophenyl)cyclopenten-1-yl]methoxy]-2-(trifluoromethyl)phenyl]Propanoic Acid] | 0.548 µM | 0.411 µM | 0.142 µM |
| O=C(O)CCc1ccc(OCC2=C(c3ccc(Cl)cc3)CCC2)cc1-c1ccccc1 [Compound 136, 3-[4-[[2-(4-chlorophenyl)cyclopenten-1-yl]methoxy]-2-phenyl-phenyl]Propanoic Acid] | 0.788 µM | – | > 5 µM |
| Cc1c(CCC(=O)O)ccc(OCC2=C(c3ccc(Cl)s3)CCC(F)(F)C2)c1C [Compound 563, 3-[4-[[2-(5-chloro-2-thienyl)-5,5-difluoro-cyclohexen-1-yl]methoxy]-2,3-dimethyl-phenyl]Propanoic Acid] | 0.237 µM | 0.12 µM | – |
| Cc1c(CCC(=O)O)ccc(OCC2=C(c3cccs3)CC(F)(F)C2)c1C [Compound 200, 3-[4-[[4,4-difluoro-2-(2-thienyl)cyclopenten-1-yl]methoxy]-2,3-dimethyl-phenyl]Propanoic Acid] | 0.435 µM | 0.184 µM | – |

More lines, in order of falling EC50 [1], values ahead:

| EC50 [1] | EC50 (Human GPR120 short form) | EC50 (human GPR40) | SMILES |
| --- | --- | --- | --- |
| 0.754 µM | 0.237 µM | 0.834 µM | COc1cc(OCC2=C(c3ccc(Cl)cc3)CCC2)ccc1CCC(=O)O [Compound 97, 3-[4-[[2-(4-chlorophenyl)cyclopenten-1-yl]methoxy]-2-methoxy-phenyl]Propanoic Acid] |
| 0.68 µM | – | > 5 µM | CC(Cc1ccc(OCC2=C(c3ccc(Cl)cc3)CCC2)c(F)c1)C(=O)O (stereo not drawn) [Compound 34, 3-[4-[[2-(4-chlorophenyl)cyclopenten-1-yl]methoxy]-3-fluoro-phenyl]-2-methyl-Propanoic Acid] |
| 0.68 µM | – | 0.401 µM | CCc1cc(OCC2=C(c3ccc(Cl)cc3)CCC2)ccc1CCC(=O)O [Compound 161, 3-[4-[[2-(4-chlorophenyl)cyclopenten-1-yl]methoxy]-2-ethyl-phenyl]Propanoic Acid] |
| 0.466 µM | – | 0.365 µM | O=C(O)CCc1ccc(OCC2=C(c3ccc(Cl)cc3)CCC2)cc1Cl [Compound 143, 3-[2-chloro-4-[[2-(4-chlorophenyl)cyclopenten-1-yl]methoxy]phenyl]Propanoic Acid] |
| 0.408 µM | 0.792 µM | – | O=C(O)CCc1cc(F)c(OCC2=C(c3cccs3)CC(F)(F)C2)c(F)c1 [Compound 201, 3-[4-[[4,4-difluoro-2-(2-thienyl)cyclopenten-1-yl]methoxy]-3,5-difluoro-phenyl]Propanoic Acid] |
| 0.363 µM | 0.202 µM | – | Cc1c(CCC(=O)O)ccc(OCC2=C(c3ccc(Cl)cc3)CC(F)(F)CC2)c1C [Compound 568, 3-[4-[[2-(4-chlorophenyl)-4,4-difluoro-cyclohexen-1-yl]methoxy]-2,3-dimethyl-phenyl]Propanoic Acid] |
| 0.238 µM | 0.124 µM | 4.93 µM | O=C(O)CCc1ccc(OCC2=C(c3ccc(F)cc3)CC(F)(F)C2)cc1 [Compound 228, 3-[4-[[4,4-difluoro-2-(4-fluorophenyl)cyclopenten-1-yl]methoxy]phenyl]Propanoic Acid] |
| 0.211 µM | 0.106 µM | – | Cc1c(CCC(=O)O)ccc(OCC2=C(c3ccc(Cl)c(F)c3)CC(F)(F)C2)c1C [Compound 171, 3-[4-[[2-(4-chloro-3-fluoro-phenyl)-4,4-difluoro-cyclopenten-1-yl]methoxy]-2,3-dimethyl-phenyl]Propanoic Acid] |
| 0.192 µM | 0.147 µM | > 5 µM | CCC1CCC(c2ccc(Cl)cc2)=C(COc2ccc(CCC(=O)O)c(C)c2C)C1 (stereo not drawn) [Compound 502, 3-[4-[[2-(4-chlorophenyl)-5-ethyl-cyclohexen-1-yl]methoxy]-2,3-dimethyl-phenyl]Propanoic Acid] |
| 0.11 µM | 0.137 µM | > 5 µM | Cc1c(CCC(=O)O)ccc(OCC2=C(c3ccco3)CCC2)c1C [Compound 210, 3-[4-[[2-(2-furyl)cyclopenten-1-yl]methoxy]-2,3-dimethyl-phenyl]Propanoic Acid] |
